Reference: PMC4200806, “A Combined Experimental and Computational Study of Vam3, a Derivative of Resveratrol, and Syk Interaction” (International Journal of Molecular Sciences, 2014)

Target: Spleen tyrosine kinase (Syk) (Homo sapiens, UniProt P43405)
Assay: in vitro kinase assay with purified recombinant Syk (ADP-Glo, poly(Glu,Tyr) substrate); Ki from ATP-competition kinetics; IC50 […]
Type: biochemical

- Ki: 0.0611 µM
SMILES: Oc1ccc(/C=C/c2cc(O)cc3oc(-c4ccc(O)cc4)c(-c4cc(O)cc(O)c4)c23)cc1 [Vam3]
